Results taken from ChEMBL document CHEMBL2203083, “Facile synthesis and anticancer activity of C-10 non-acetal deoxoartemisinin dimers” (Bioorg Med Chem Lett, 2012).

Each compound was assayed on Caco-2 (assay: Cytotoxicity against human Caco2 cells assessed as cell viability after 48 hrs by MTT assay). Conditions: Caco-2, 48 h.
Type: functional, cell-based

| Structure (SMILES) | IC50 [µM] |
| --- | --- |
| C[C@H]1[C@@H](CC(=O)N(CCNC(=O)[C@H](CCCCN)NC(=O)OCC2c3ccccc3-c3ccccc32)CC(=O)OC(C)(C)C)O[C@@H]2O[C@@]3(C)CC[C@H]4[C@H](C)CC[C@@H]1[C@@]24OO3 | 4.38 |
| C[C@H]1[C@@H](CC(=O)N(CCNC(=O)[C@H](CCCCNC(=O)OC(C)(C)C)NC(=O)OCC2c3ccccc3-c3ccccc32)CC(=O)OC(C)(C)C)O[C@@H]2O[C@@]3(C)CC[C@H]4[C@H](C)CC[C@@H]1[C@@]24OO3 | 12 |
| C[C@H]1[C@@H](CC(=O)N(CCNC(=O)OCC2c3ccccc3-c3ccccc32)CC(=O)NCCN(CC(=O)OC(C)(C)C)C(=O)C[C@H]2O[C@@H]3O[C@@]4(C)CC[C@H]5[C@H](C)CC[C@@H]([C@H]2C)[C@@]35OO4)O[C@@H]2O[C@@]3(C)CC[C@H]4[C@H](C)CC[C@@H]1[C@@]24OO3 | 2.87 |
| C[C@H]1[C@@H](CC(=O)N(CCNC(=O)OCC2c3ccccc3-c3ccccc32)CC(=O)OC(C)(C)C)O[C@@H]2O[C@@]3(C)CC[C@H]4[C@H](C)CC[C@@H]1[C@@]24OO3 | 5.36 |
| C[C@H]1[C@@H](CC(=O)N(CCNC(=O)[C@H](CCCCN)NC(=O)OCC2c3ccccc3-c3ccccc32)CC(=O)NCCN(CC(=O)OC(C)(C)C)C(=O)C[C@H]2O[C@@H]3O[C@@]4(C)CC[C@H]5[C@H](C)CC[C@@H]([C@H]2C)[C@@]35OO4)O[C@@H]2O[C@@]3(C)CC[C@H]4[C@H](C)CC[C@@H]1[C@@]24OO3 | 2.04 |
| C[C@H]1[C@@H](O)O[C@@H]2O[C@@]3(C)CC[C@H]4[C@H](C)CC[C@@H]1[C@@]24OO3 [ARTENIMOL] | 26.9 |
| C[C@H]1[C@@H](CC(=O)N(CCNC(=O)[C@@H](N)CCCCN)CC(=O)OC(C)(C)C)O[C@@H]2O[C@@]3(C)CC[C@H]4[C@H](C)CC[C@@H]1[C@@]24OO3 | 14.7 |
| C[C@H]1[C@@H](CC(=O)N(CCNC(=O)[C@@H](N)CCCCN)CC(=O)NCCN(CC(=O)OC(C)(C)C)C(=O)C[C@H]2O[C@@H]3O[C@@]4(C)CC[C@H]5[C@H](C)CC[C@@H]([C@H]2C)[C@@]35OO4)O[C@@H]2O[C@@]3(C)CC[C@H]4[C@H](C)CC[C@@H]1[C@@]24OO3 | 3.58 |
| C[C@H]1[C@@H](CC(=O)N(CCNC(=O)[C@H](CCCCNC(=O)OC(C)(C)C)NC(=O)OCC2c3ccccc3-c3ccccc32)CC(=O)NCCN(CC(=O)OC(C)(C)C)C(=O)C[C@H]2O[C@@H]3O[C@@]4(C)CC[C@H]5[C@H](C)CC[C@@H]([C@H]2C)[C@@]35OO4)O[C@@H]2O[C@@]3(C)CC[C@H]4[C@H](C)CC[C@@H]1[C@@]24OO3 | 8.03 |
